From the NIST ThermoML archive (doi:10.1016/j.jct.2013.09.008)

Experiment: mn = molality of the nth substance listed, in mol/kg
Conditions: 101.33 kPa, Liquid; for speed of sound: Frequency=3 MHz, Linear variable-path acoustic interferometer; for mass density: Pycnometric method; for viscosity: Capillary tube (Ostwald / Ubbelohde) method

N[C@@H](Cc1ccccc1)C(=O)O [L-phenylalanine] + O
Conditions	mass density [kg/m3]	speed of sound [m/s]	viscosity [mPa·s]
293.15 K, m1 = 0.0249	999.4	1488.8	–
293.15 K, m1 = 0.0498	1000.55	1493	–
293.15 K, m1 = 0.0749	1001.71	1496.2	–
293.15 K, m1 = 0.0999	1002.88	1498.3	–
293.15 K, m1 = 0.125	1004.04	1499.4	–
293.15 K, m1 = 0.1499	1005.2	1499.4	–
298.15 K, m1 = 0.0249	998.23	1501.9	0.9038
298.15 K, m1 = 0.0498	999.39	1505.9	0.9168
298.15 K, m1 = 0.0749	1000.55	1509	0.9299
298.15 K, m1 = 0.0999	1001.72	1511	0.9431
298.15 K, m1 = 0.125	1002.88	1512	0.9561
298.15 K, m1 = 0.1499	1004.05	1511.9	0.9691
303.15 K, m1 = 0.0249	996.84	1513.1	0.8083
303.15 K, m1 = 0.0498	998	1516.8	0.819
303.15 K, m1 = 0.0749	999.17	1519.5	0.8294
303.15 K, m1 = 0.0999	1000.34	1521.2	0.8399
303.15 K, m1 = 0.125	1001.51	1521.8	0.8505
303.15 K, m1 = 0.1499	1002.68	1521.3	0.8605
308.15 K, m1 = 0.0249	995.24	1524.1	0.7285
308.15 K, m1 = 0.0498	996.4	1527.4	0.7372
308.15 K, m1 = 0.0749	997.58	1529.8	0.7462
308.15 K, m1 = 0.0999	998.75	1531.1	0.7545
308.15 K, m1 = 0.125	999.92	1531.4	0.7635
308.15 K, m1 = 0.1499	1001.09	1530.6	0.7722
313.15 K, m1 = 0.0249	993.43	1530.8	0.6607
313.15 K, m1 = 0.0498	994.6	1533.8	0.668
313.15 K, m1 = 0.0749	995.78	1535.8	0.6749
313.15 K, m1 = 0.0999	996.96	1536.8	0.682
313.15 K, m1 = 0.125	998.14	1536.7	0.6897
313.15 K, m1 = 0.1499	999.32	1535.7	0.6968
318.15 K, m1 = 0.0249	991.43	1536.5	0.604
318.15 K, m1 = 0.0498	992.61	1539.1	0.6102
318.15 K, m1 = 0.0749	993.8	1540.8	0.616
318.15 K, m1 = 0.0999	994.98	1541.5	0.622
318.15 K, m1 = 0.125	996.17	1541.3	0.6285
318.15 K, m1 = 0.1499	997.36	1540	0.6346
